Measurements as given in PubChem BioAssay (NCI).
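Step 1: Grow cells in 96-well plates. Step 2: Expose to compound for 48 hours at 5 concentrations. Step 3: Interpolate endpoints linearly; if unreached, use highest concentration. GI50 is the concentration that inhibits growth by half. TGI: concentration producing complete growth inhibition.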

Assays:
Experiment in all cases: growth of human tumour cells (NCI), 48 h
OVCAR-8 ovarian = test system: OVCAR-8 ovarian
UACC-62 melanoma = test system: UACC-62 melanoma
HL-60(TB) leukemia = test system: HL-60(TB) leukemia
786-0 renal = test system: 786-0 renal
MCF7 breast = test system: MCF7 breast
NCI/ADR-RES ovarian = test system: NCI/ADR-RES ovarian
COLO 205 colon = test system: COLO 205 colon
TK-10 renal = test system: TK-10 renal
K-562 leukemia = test system: K-562 leukemia
LOX IMVI melanoma = test system: LOX IMVI melanoma
OVCAR-4 ovarian = test system: OVCAR-4 ovarian
NCI-H226 lung = test system: NCI-H226 lung
SK-MEL-5 melanoma = test system: SK-MEL-5 melanoma
SK-MEL-2 melanoma = test system: SK-MEL-2 melanoma
SF-539 CNS = test system: SF-539 CNS
NCI-H522 lung = test system: NCI-H522 lung
MOLT-4 leukemia = test system: MOLT-4 leukemia
NCI-H460 lung = test system: NCI-H460 lung
HT29 colon = test system: HT29 colon
SNB-75 CNS = test system: SNB-75 CNS
EKVX NSCLC = test system: EKVX NSCLC
HOP-92 NSCLC = test system: HOP-92 NSCLC
HCT-116 colon = test system: HCT-116 colon
HCC-2998 colon = test system: HCC-2998 colon
HOP-62 NSCLC = test system: HOP-62 NSCLC
SR leukemia = test system: SR leukemia
RPMI-8226 leukemia = test system: RPMI-8226 leukemia
MDA-MB-231 breast = test system: MDA-MB-231 breast
CCRF-CEM leukemia = test system: CCRF-CEM leukemia

Compound: C#C[C@]1(O)CC[C@H]2[C@@H]3CC=C4c5sc(Nc6ccncc6)nc5CC[C@]4(C)[C@H]3CC[C@@]21C
- GI50 (OVCAR-8 ovarian): 987 nM
- TGI (OVCAR-8 ovarian): 2780 nM
- GI50 (UACC-62 melanoma): 223 nM
- TGI (UACC-62 melanoma): 595 nM
- GI50 (HL-60(TB) leukemia): 153 nM
- TGI (HL-60(TB) leukemia): 1390 nM
- GI50 (786-0 renal): 120 nM
- TGI (786-0 renal): 648 nM
- GI50 (MCF7 breast): 232 nM
- TGI (MCF7 breast): 1380 nM
- GI50 (NCI/ADR-RES ovarian): 1260 nM
- TGI (NCI/ADR-RES ovarian): 4480 nM
- GI50 (COLO 205 colon): 227 nM
- TGI (COLO 205 colon): 494 nM
- GI50 (TK-10 renal): 1010 nM
- TGI (TK-10 renal): 2460 nM
- GI50 (K-562 leukemia): 247 nM
- TGI (K-562 leukemia): 811 nM
- GI50 (LOX IMVI melanoma): 200 nM
- TGI (LOX IMVI melanoma): 476 nM
- GI50 (OVCAR-4 ovarian): 1360 nM
- TGI (OVCAR-4 ovarian): 3190 nM
- GI50 (NCI-H226 lung): 1620 nM
- TGI (NCI-H226 lung): 22500 nM
- GI50 (SK-MEL-5 melanoma): 467 nM
- TGI (SK-MEL-5 melanoma): 1570 nM
- GI50 (SK-MEL-2 melanoma): 342 nM
- TGI (SK-MEL-2 melanoma): 1320 nM
- GI50 (SF-539 CNS): 108 nM
- TGI (SF-539 CNS): 318 nM
- GI50 (NCI-H522 lung): 740 nM
- TGI (NCI-H522 lung): 2220 nM
- GI50 (MOLT-4 leukemia): 216 nM
- TGI (MOLT-4 leukemia): 997 nM
- GI50 (NCI-H460 lung): 372 nM
- TGI (NCI-H460 lung): 1400 nM
- GI50 (HT29 colon): 308 nM
- TGI (HT29 colon): 1290 nM
- GI50 (SNB-75 CNS): 191 nM
- TGI (SNB-75 CNS): 1930 nM
- GI50 (EKVX NSCLC): 552 nM
- TGI (EKVX NSCLC): 3160 nM
- GI50 (HOP-92 NSCLC): 312 nM
- TGI (HOP-92 NSCLC): 1330 nM
- GI50 (HCT-116 colon): 309 nM
- TGI (HCT-116 colon): 1200 nM
- GI50 (HCC-2998 colon): 1480 nM
- TGI (HCC-2998 colon): 2930 nM
- GI50 (HOP-62 NSCLC): 266 nM
- TGI (HOP-62 NSCLC): 1150 nM
- GI50 (SR leukemia): 47.2 nM
- TGI (SR leukemia): 483 nM
- GI50 (RPMI-8226 leukemia): 42 nM
- TGI (RPMI-8226 leukemia): 250 nM
- GI50 (MDA-MB-231 breast): 942 nM
- TGI (MDA-MB-231 breast): 3280 nM
- GI50 (CCRF-CEM leukemia): 257 nM
- TGI (CCRF-CEM leukemia): 3750 nM
